Measurements taken from paper PMC9278491, “Filarial nematode phenotypic screening cascade to identify compounds with anti-parasitic activity for drug discovery optimization” (International Journal for Parasitology: Drugs and Drug …, 2022).
Values joined by “and” are separate entries in the source; they are usually repeats but may differ in a detail not shown here. Equal entries are not always repeated. Where two headings read alike, the source gives them in different places.

Tests used:
[1] = system: adult L. sigmodontis; test: L. sigmodontis murine model of filariasis (adult worm burden); assay type: in vivo, Litomosoides sigmodontis in female BALB/c mice; details: BALB/c mice, 2 mg/kg, QD SC, 5 days, mean vs mean of vehicle controls
[2] = system: O. lienalis microfilariae; test: O. lienalis microfilariae 5-day motility assay; design: species or system Onchocerca lienalis; details: 5 days in vitro culture, top concentration 12.5 μM; read-out: O. lienalis EC50 (motility inhibition, microfilariae)
Description: A single large batch of O. lienalis microfilariae was obtained post mortem from the peri-umbilical skin area of freshly slaughtered, naturally infected cattle in the UK following the procedure described by ([Tagboto and Townson, 1991]) and the references therein. The extracted microfilariae were cryopreserved using a 2-step incubation technique with ethanediol as a cryoprotectant ([Ham et al., 1981]), stored in liquid nitrogen and thawed when required for immediate use.
Using a dissecting microscope and micropipette, microfilariae were then transferred in groups of 5 into each well of a 96-well plate (Fisher Scientific, UK). […]
(§1) Only normally active worms were used for the test and all assays were conducted at 37 °C and 5% CO2. […] The activity levels of O. gutturosa adult worms were assessed by the measurement of mean motility scores on a scale of 0 (immotile) to 10 (maximum) every 24 h, terminating at 120 h, using an Olympus inverted microscope. For O. lienalis microfilariae, the motility of the microfilariae was classified using an Olympus inverted microscope as normal (continuous rapid sinuous movement, scored as 3), marginally impaired (slower than normal movement, scored as 2), severely impaired (scored as 1), or immotile (scored as 0) after 120 h of drug exposure. […]
The EC50 values were calculated using a sigmoidal interpolation in Graph Pad Prisme 7 data analysis software. […]

[3] = system: O. gutturosa adult worms; test: O. gutturosa adult worm viability, MTT/formazan colorimetry; design: species or system Onchocerca gutturosa; details: day 5, vs untreated control
Description: The EC50 values were calculated using a sigmoidal interpolation in Graph Pad Prisme 7 data analysis software. The test drug is considered active when a motility reduction of ≥50% is observed by comparison to the untreated controls. In addition, biochemical evaluation of O. gutturosa adult worm viability was assessed using MTT/formazan colorimetry. The MTT assay was carried out after the last motility reading (120 h). Single intact worms were placed in each well of a 48-well plate (Fisher Scientific, UK) containing 0.5 mL of 0.5 mg/mL MTT (Sigma, UK) in PBS solution, and then incubated for 30 min at 37 °C. The worms were removed, blotted carefully, and individually transferred to separate wells of a 96-well microtiter plate, each containing 200 μL of DMSO to solubilize the formazan. After 1 h the plate was gently agitated to disperse the color evenly and the absorbance value (optical density, OD) of the resulting formazan solution was determined at 490 nm using an absorbance microplate reader (Biotek ELx800, Fisher Scientific, UK). The results are expressed as the mean OD per drug concentration. Inhibition of formazan formation is correlated with worm damage or death.
Supplementary Figure S4. Ex vivo MTT worm viability screening against adult O. gutturosa. O. gutturosa adult worm viability was assessed using MTT/formazan colorimetry on day 5. […]

[4] = system: O. gutturosa adult male worms; test: O. gutturosa adult worm 5-day motility assay; design: species or system Onchocerca gutturosa; details: 5 days in vitro culture, top concentration 12.5 μM, read-out: O. gutturosa EC50 (motility inhibition, adult worms)
Text: O. gutturosa adult male worms were obtained postmortem from freshly slaughtered cattle. The worms were dissected from the nuchal ligament connective tissues of naturally infected cattle in Gambia, West Africa; The West Africa Livestock Innovation Centre (WALIC), Banjul, purchased material from local butchers for use in this study.
Using a dissecting microscope and micropipette, microfilariae were then transferred in groups of 5 into each well of a 96-well plate (Fisher Scientific, UK). The adult O. gutturosa worms were transferred individually to each well of a sterile 24-well (2 mL) plate (Fisher Scientific, UK) and maintained for at least 24 h in culture before use. […]
as §1

SMILES | Reduction Adult Worms [1] | EC50 [2] [µM] | O. gutturosa MTT % reduction at 12.5 μM [3] [%] | EC50 ([4]; listed as Imiticide) [µM] | EC50 [4] [µM]
COC(=O)Nc1nc2cc(C(=O)c3ccc(F)cc3)ccc2[nH]1 [Flubendazole, flubendazole] | 98.4% (P = 0.024) and 100% (P = 0.007) | – | – | – | –
Cl.Cl.NCCS[As](SCCN)c1ccc(Nc2nc(N)nc(N)n2)cc1 [Immiticide, melarsomine dihydrochloride] | – | 0.8 | 96.3 | 0.6 | 0.59
